What was measured:
Type in all cases: cell-based
[1] = test system: SDF-1α induced Ca flux in SUP-T1 cells; assay: Inhibition of chemokine (SDF-1α) induced Ca flux measured on a FLIPR; details: Homo sapiens, at 20 μg/mL
Description: Inhibition of Chemokine Induced Ca Flux Measured on a FLIPR (Molecular Devices) Loading dye: Fluo-3, AM (Molecular Probes F-1241) is dissolved in anhydrous DMSO and stored frozen in aliquots. To increase the solubility of the dye in the loading medium, 10% (w/v) pluronic acid (Molecular Probes F-127) is added to the Fluo-3 stock solution immediately before use. buffer+0.2% BSA, pH 7.4. HBSS 10× [(w/o phenol red and sodium bicarbonate (Gibco 14 065-049)]; Hepes buffer 1M (Gibco 15 630-056), BSA (Sigma A3675). The flux buffer is vacuum-filtered and stored refrigerated for a maximum of 5 days. Before use in the experiment, the buffer is warmed at 37° C. in a waterbath. The test compounds were diluted in flux buffer at the desired concentration and added to 4 wells of a black microplate (4 parallel measurements per compound). The following control wells were used: 100% response control (no inhibition), flux buffer was added; 100% inhibition control: chemokine was added at 5-times the concentration required to induce a Ca flux. The chemokines are diluted in flux buffer to concentrations that are 4-fold higher than the desired concentrations required for stimulation of the cells (i.e. 2.5 nM for SDF-1α and 0.6 nM for RANTES). The chemokines were added to untreated 96-well Sero well compound plates (International Medical, Sterilin code 611F96). In the negative control well's (baseline monitoring), flux buffer is added instead of chemokine. As a positive control to check for dye loading efficiency, 20 μM digitonin (final concentration) was also included. The agonist plate was incubated in the FLIPR (37° C.) for 15-30 min. Cell Loading Protocol for Measuring Inhibition of SDF-1α Induced Ca Flux in SUP-T1 Cells. SUP-T1 cells were centrifuged at room temperature (RT) and re-suspended in loading medium (RPMI-1640 containing 2% FBS and 4 μM Fluo-3, AM). The cells were incubate at room temperature for 45 min. then washed twice in flux buffer then incubated in flux buffer at room temperature for 10 min. The cells were centrifuged and re-suspended in flux buffer at a density of 3×10^6 cells per mL. A 100 μL aliquot of the cell suspension (3×10^5 cells) was added to each well of a black microplate (Costar 3603), which already contains 50 μL of a solution of the test compound (at concentrations that are 3-fold higher than the desired final compound concentrations). The microplate is then gently centrifuged at room temperature. Homogeneous spreading of the cells on the bottom of the microplate wells was then confirmed with a microscope and the microplate was incubated in the FLIPR (37° C.) for 10 min. prior to testing. The FLIPR settings (camera exposure time and laser power) are adjusted to obtain initial fluorescence values between 8,000 and 10,000 units. After monitoring a 20 second-baseline, the agonist (chemokine) (50 μL) is added by automatic pipettor with black pipette tips. Fluorescence is measured simultaneously in all wells of the microplate every 2 seconds (first 2 min) and thereafter every 6 seconds (additional 2 min). The average ca-flux measured in each set of 4 identical wells (one test compound) was calculated by the FLIPR software. The compounds of the current invention are tested for inhibition of SDF-1α induced Ca flux in SUP-T1 cells using the method described above.

[2] = test system: HIV-1 NL4.3 (or IIIB, CXCR4 using); assay: Inhibition of HIV-1 (NL4.3) replication in MT-4 cells; details: Human immunodeficiency virus 1, IIIB, MT4, 120 h, MTT viability after 5 days
Description: Assay for Inhibition of HIV-1 (NL4.3) Replication in MT-4 Cells. Inhibition of HIV-1 NL4.3 (or IIIB, CXCR4 using) replication assays were performed as previously described (Bridger et al. J. Med. Chem. 1999, 42, 3971-3981; De […] et al. Proc. Natl. Acad. Sci, 1992, 89, 5286-5290; De […] et al. Antimicrob. Agents Chemother. 1994, 38, 668-674; Bridger et al. J. Med. Chem. 1995, 38, 366-378; Schols et al. J. Exp. Med., 1997, 186, 1383-1388). Anti-HIV activity and cytotoxicity measurements were carried out in parallel. They were based on the viability of MT-4 cells that had been infected with HIV in the presence of various concentrations of the test compounds. After the MT-4 cells were allowed to proliferate for 5 days, the number of viable cells was quantified by a tetrazolium-based colorimetric 3-(4,5-dimethylthiazol-2-yl)-2,5-diphenyltetrazolium bromide (MTT) procedure in 96-well microtrays. In all of these assays, viral input (viral multiplicity of infection, MOI) was 0.01, or 100 times the 50% cell culture infective dose (CCID50). The EC50 was defined as the concentration required to protect 50% of the virus-infected cells against viral cytopathicity. When compounds of the current invention are tested for inhibition of HIV-1 NL4.3 or IIIB replication in MT-4 cells, all show inhibition.

HIV-1 BaL (CCR5 using) = assay: Inhibition of HIV-1 (BaL) replication in PBMC's; details: Human immunodeficiency virus 1, BAL, PHA-stimulated PBMC's, viral p24 antigen expression
Description: Assay for Inhibition of HIV-1 (BaL) Replication in PBMC's. When compounds of the current invention are tested for inhibition of HIV-1 BaL (CCR5 using) replication in PHA-stimulated PBMC's (peripheral blood mononuclear cells) using viral p24 antigen expression (De […] et al. Antimicrob. Agents Chemother. 1994, 38, 668-674; Schols et al. J. Exp. Med., 1997, 186, 1383-1388), all show inhibition.

SMILES	EC50 [2] [µg/mL]	EC50 (HIV-1 BaL (CCR5 using)) [µg/mL]	inhibition at 20 µg/mL [1] [%]
O=S(=O)(NCc1ccccn1)c1ccc(CN(Cc2nc3ccccc3[nH]2)C2CCCc3cccnc32)cc1 (centres unmarked) [Example 11, 4-{[(1 H-Benzimidazol-2-ylmethyl)-(5,6,7,8-tetrahydro-quinolin-8-yl)-amino]-methyl}-N-pyridin-2-ylmethyl-benzenesulfonamide]	< 20	< 20	> 20
O=C(NCc1ccc(CNC2CCCc3cccnc32)cc1)c1ccccn1 (centres unmarked) [Example 16, Pyridine-2-carboxylic acid 4-[(5,6,7,8-tetrahydro-quinolin-8-ylamino)-methyl]-benzeylamide]		< 20	
O=C(NCc1ccc(CN(Cc2nc3ccccc3[nH]2)C2CCCc3cccnc32)cc1)c1ccccn1 (centres unmarked) [Example 17, Pyridine-2-carboxylic Acid 4-{[(1 H-benzimidazol-2-ylmethyl)-(5,6,7,8-tetrahydro-quinolin-8-yl)-amino]-methyl}-benzylamide]	< 20	< 20	> 20
O=S(=O)(Nc1ccc(CN(Cc2nc3ccccc3[nH]2)C2CCCc3cccnc32)cc1)c1ccccn1 (centres unmarked) [Example 53, Pyridine-2-sulfonic acid (4-{[(1H-benzoimidazol-2-ylmethyl)-(5,6,7,8-tetrahydro-quinolin-8-yl)-amino]-methyl}-phenyl)-amide]	< 20	< 20	

Now from value to molecule, other results behind:

EC50 [2] [µg/mL]	EC50 (HIV-1 BaL (CCR5 using)) [µg/mL]	SMILES	inhibition at 20 µg/mL [1] [%]
< 20	< 20	O=C(Nc1ccccn1)c1ccc(CN(Cc2nc3ccccc3[nH]2)C2CCCc3cccnc32)cc1 (centres unmarked) [Example 2, 4-{[(1 H-Benzimidazol-2-ylmethyl)-(5,6,7,8-tetrahydroquinolin-8-yl)amino]-methyl}-N-pyridin-2-yl-benzamide]	> 20
< 20	< 20	O=C(NCc1ccccn1)c1ccc(CN(Cc2nc3ccccc3[nH]2)C2CCCc3cccnc32)cc1 (centres unmarked) [Example 4, 4-{[(1 H-Benzimidazol-2-ylmethyl)-(5,6,7,8-tetrahydro-quinolin-8-yl)-amino]-methyl}-N-pyridin-2-ylmethyl-benzamide]	> 20
< 20		O=C(Nc1ccc(CN(Cc2nc3ccccc3[nH]2)C2CCCc3cccnc32)cc1)c1ccccn1 (centres unmarked) [Example 45, pyridine-2-carboxylic acid (4-{[(1 H-benzoimidazol-2-ylmethyl)-(5,6,7,8-tetrahydro-quinolin-8-yl)-amino]-methyl}-phenyl)-amide]	> 20
< 20	< 20	O=S(=O)(NCc1ccc(CN(Cc2nc3ccccc3[nH]2)C2CCCc3cccnc32)cc1)c1ccccn1 (centres unmarked) [Example 48, Pyridine-2-sulfonic Acid 4-{[(1 H-benzoimidazol-2-ylmethyl)-(5,6,7,8-tetrahydro-quinolin-8-yl)-amino]-methyl}-benzylamide]	> 20

Reference: patent US6835731B2, “Chemokine receptor binding heterocyclic compounds” (AnorMED, Inc., priority 2000, dated 2004)
